Paper PMC12396409, “Screening and hit evaluation of a microbial metabolite library against the pathogenic Plasmodium falciparum and Toxoplasma gondii parasites” (International Journal for Parasitology: Drugs and Drug …, 2025)

Assays:
[1] = system: P. falciparum 3D7 parasites; assay: P. falciparum growth inhibition assay, 1-cycle (72 h treatment), SYBR DNA staining (library screen at 2 μg/mL and dose-response); format: cell-based, Plasmodium falciparum; conditions: for IC50: 3D7, 72 h treatment, mean ± S.D., n ≥ 3, read-out: IC50 (μM), P. falciparum; for Pf_72h_%Growth_Rep1 / Pf_72h_%Growth_Rep2: % growth; for Pf_72h_%Growth_Rep1: replicate 1; for Pf_72h_%Growth_Rep2: replicate 2
[2] = system: P. falciparum 3D7 parasites; assay: P. falciparum growth inhibition assay, 2-cycle (120 h treatment), delayed-death screen and dose-response; format: cell-based, Plasmodium falciparum; conditions: % growth; for Pf_120h_%Growth_Rep1: replicate 1; for Pf_120h_%Growth_Rep2: replicate 2
[3] = system: T. gondii RH strain (RH-Tub-eYFP) tachyzoites; assay: microbe, parasite or virus in culture; format: cell-based, Toxoplasma gondii; conditions: 72 h; for Tg_72h_%Growth_Rep1 / Tg_72h_%Growth_Rep2: % growth; for Tg_72h_%Growth_Rep1: replicate 1; for Tg_72h_%Growth_Rep2: replicate 2
[4] = P. falciparum, 72 h, parasite screen 2 μg/mL
[5] = P. falciparum, 120 h, parasite screen 2 μg/mL
[6] = T. gondii, 2 μg/mL, values are growth (% of control)
[7] = T. gondii, parasite screen 2 μg/mL
[8] = library screen at 2 μg/mL, 72 h
[9] = library screen at 2 μg/mL, 120 h
[10] = P. falciparum 3D7, 72 h, parasite screen at 2 μg/mL
[11] = P. falciparum 3D7, 120 h, parasite screen at 2 μg/mL
[12] = T. gondii, parasite screen at 2 μg/mL

Row | Molecule | Pf_72h_%Growth_Rep1 [1, 4] [%] | Pf_72h_%Growth_Rep2 [1, 4] [%] | Pf_120h_%Growth_Rep1 [2, 5] [%] | Pf_120h_%Growth_Rep2 [2, 5] [%] | Tg_72h_%Growth_Rep1 [3, 7] [%] | Tg_72h_%Growth_Rep2 [3, 7] [%] | Pf_72h_%Growth_Rep1 [1, 8] [%] | Pf_72h_%Growth_Rep2 [1, 8] [%] | Pf_120h_%Growth_Rep1 [2, 9] [%] | Pf_120h_%Growth_Rep2 [2, 9] [%] | Tg_72h_%Growth_Rep1 ([3]; library screen at 2 μg/mL) [%] | Tg_72h_%Growth_Rep2 ([3]; library screen at 2 μg/mL) [%] | Pf_72h_%Growth_Rep1 [1, 10] [%] | Pf_72h_%Growth_Rep2 [1, 10] [%] | Pf_120h_%Growth_Rep1 [2, 11] [%] | Pf_120h_%Growth_Rep2 [2, 11] [%] | Tg_72h_%Growth_Rep1 [3, 12] [%] | Tg_72h_%Growth_Rep2 [3, 12] [%] | other results
1 | CC[C@H]1CCC[C@H](O)[C@@H](C)C(=O)C2=C[C@@H]3[C@@H](C=C[C@@H]4C[C@@H](O[C@@H]5O[C@@H](C)[C@H](OC)[C@@H](OC)[C@H]5OC)C[C@@H]34)[C@@H]2CC(=O)O1 [Spinosyn A pseudoaglycone] | 8.11 | -6.27 | 17.26 | 10.80 | 50.49 | 9.69 |  |  |  |  |  |  |  |  |  |  |  |  | IC50 [1]: > 1 µM; Mean ([3]; T. gondii, 2 μg/mL, mean of both replicates, growth (% of control)): 30.09; Replicate 1 [3, 6]: 50.49; Replicate 2 [3, 6]: 9.69
2 | CO/C1=C\C(C)=C\C(C)C(O)C(C)C/C(C)=C/C=C/C(OC)C(C(C)C(O)C(C)C2(O)CC(OC(=O)/C=C/C(=O)O)C(C)C(C(C)C)O2)OC1=O (stereo not drawn) [Bafilomycin C1] |  |  |  |  |  |  | 1.92 | 0.47 | 3.53 | -2.55 | -0.73 | -0.13 |  |  |  |  |  |  | 
3 | CC[C@H](C)C(=O)O[C@H]1CCC=C2C=C[C@H](C)[C@H](CC[C@@H]3C[C@@H](O)CC(=O)O3)[C@H]21 [BIA-M1209] |  |  |  |  |  |  |  |  |  |  |  |  | 86.39 | 121.47 | 88.69 | 112.58 | 113.16 | 83.90 | 
4 | CCOC(=O)[C@H](Cc1ccccc1)NC(=O)c1cc(Cl)c2c(c1O)C(=O)O[C@H](C)C2 [BIA-O1589] |  |  |  |  |  |  |  |  |  |  |  |  | 85.35 | 104.78 | 89.48 | 144.99 | 74.06 | 66.00 | 
5 | Elaiophylin |  |  |  |  |  |  | 6.63 | 7.41 | 18.08 | 22.72 | -0.18 | 0.99 |  |  |  |  |  |  | 
6 | COC1=C(N)C(=O)c2nc(-c3nc(C(=O)O)c(C)c(-c4cccc(OC)c4O)c3N)ccc2C1=O [Desmethoxystreptonigrin, 10'-] |  |  |  |  |  |  | 2.87 | 4.81 | 0.15 | 8.14 | 4.18 | 4.20 |  |  |  |  |  |  | 
7 | CCO[C@@H]1[C@@H](OC)[C@H](C)O[C@@H](O[C@@H]2C[C@H]3CC[C@@H]4[C@@H](C=C5C(=O)[C@H](C)[C@@H](O[C@H]6CC[C@H](N(C)C)[C@@H](C)O6)CCC[C@H](CC)OC(=O)C[C@H]54)[C@@H]3C2)[C@@H]1OC [spinosyn J, 3'-Ethoxy-5,6-dihydro-] | 5.68 | 5.35 | 7.21 | 9.72 | 73.90 | 86.54 |  |  |  |  |  |  |  |  |  |  |  |  | 
8 | COc1c(C)c2c(c(O)c1C/C=C(\C)CCC(=O)O)C(=O)OC2 [BIA-M1207] |  |  |  |  |  |  |  |  |  |  |  |  | 27.32 | 1.32 | 16.21 | 22.24 | 1.75 | 2.10 | 
9 | CC[C@H]1CCC[C@H](O)[C@@H](C)C(=O)C2=C[C@@H]3[C@@H](C=C(C)[C@@H]4C[C@@H](O)C[C@@H]34)[C@@H]2CC(=O)O1 [Spinosyn D aglycone] | 82.67 | 106.85 | 82.24 | 90.76 | 115.34 | 86.84 |  |  |  |  |  |  |  |  |  |  |  |  | IC50 [1]: > 1 µM; Screen (P. falciparum) ([1]; library screen at 2 μg/mL, 3D7, 72 h, DD from the 120 h timepoint): I
10 | CC1=C[C@H]2C(=O)O[C@H]3C[C@@H](C/C=C(/C)[C@@H](O)[C@@H](C)/C=C\C=C4CO[C@H]([C@@H]1O)[C@@]42O)O[C@@]1(C=C[C@H](C)[C@@H](C2CCCCC2)O1)C3 [Doramectin aglycone] |  |  |  |  |  |  | 80.09 | 78.66 | 86.97 | 81.83 | 167.81 | 107.39 |  |  |  |  |  |  | 
